Among the data in US20260022142A1, “MACROCYCLIC IMMUNOMODULATORS” (Bristol-Myers Squibb Company, priority 2022, published 2026) are IC50 values, retold here.

By IC50 is commonly meant the concentration that inhibits the measured activity by half.

Bridge positions count the residues as written; N and C are the ends. Square brackets hold non-standard residues; d marks the D form. Peptide text beside a SMILES is read from it. * marks the point of attachment. ξ: configuration not given here. Phe(4-COOH) = N[C@@H](Cc1ccc(C(=O)O)cc1)C(=O)O; Bip = N[C@@H](Cc1ccc(-c2ccccc2)cc1)C(=O)O; Phe(3-Me) = Cc1cccc(C[C@H](N)C(=O)O)c1; Val(3-OH) = CC(C)(O)[C@H](N)C(=O)O; 4Pal = N[C@@H](Cc1ccncc1)C(=O)O; Cha = N[C@@H](CC1CCCCC1)C(=O)O; Cit = NC(=O)NCCC[C@H](N)C(=O)O; Ile(3ξ) = CCC(C)[C@H](N)C(=O)O; Thr(3ξ) = CC(O)[C@H](N)C(=O)O; dDab = NCC[C@@H](N)C(=O)O; Carboxymethyl = O=C(O)C*; Orn = NCCC[C@H](N)C(=O)O; Aun = NCCCCCCCCCCC(=O)O; Dab = NCC[C@H](N)C(=O)O; AEEA = NCCOCCOCC(=O)O

The target in the assay is T1, PD-1/PD-L1 interaction (PE-labeled human PD-L1-Ig binding to Jurkat cell line over-expressing human PD-1) (Homo sapiens, UniProt Q15116).
T1 construct: expressed in transfected cells; host or cells: Jurkat
T1 sequence (Q15116 25-288): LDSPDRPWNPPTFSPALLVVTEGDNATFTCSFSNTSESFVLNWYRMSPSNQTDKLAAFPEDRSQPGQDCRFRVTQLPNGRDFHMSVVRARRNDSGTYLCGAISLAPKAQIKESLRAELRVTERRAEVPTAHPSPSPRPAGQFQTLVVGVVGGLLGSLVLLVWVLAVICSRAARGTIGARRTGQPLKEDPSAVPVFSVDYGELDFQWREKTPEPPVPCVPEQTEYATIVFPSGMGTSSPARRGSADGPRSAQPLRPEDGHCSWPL
As to the kind of experiment: Jurkat-PD-1 Cell Binding High-Content Screening Assay (CBA). Type of assay: cell-based. Particulars: Jurkat cell line over-expressing human PD-1; PE-labeled PD-L1-Ig 20 nM final; read-out: Jurkat hPD1-PDL1 IC50. In outline:
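Jurkat-hPD-1 cells, DMEM/10% FCS; cpd 2 h 37° C; PE-PD-L1-Ig 20 nM final, 1 h; 4% PFA fix + Hoechst 33342, 3× dPBS wash; high-content imaging read-out.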
Take `Cc1cccc(C[C@@H]2NC(=O)[C@H](CC(=O)O)NC(=O)[C@H](Cc3ccc(C(=O)O)cc3)NC(=O)[C@H](Cc3ccncc3)NC(=O)CSC[C@@H](C(=O)NCCOCCOCC(=O)NCCOCCOCC(=O)NCCCCCCCCCCC(=O)O)NC(=O)[C@H](Cc3cnc[nH]3)NC(=O)[C@H](C(C)(C)O)NC(=O)[C@H](CC3CCCCC3)NC(=O)[C@H](CCN)NC(=O)[C@@H](CC(C)C)NC(=O)[C@H](CCCN)NC(=O)[C@H](Cc3ccc(OCC(=O)O)cc3)NC(=O)[C@H](Cc3ccc(-c4ccccc4)cc3)NC(=O)[C@H](Cc3ccc(OCC(=O)O)cc3)NC2=O)c1` [Compound 3735] ({CH2CO}-[4Pal][Phe(4-COOH)]D[Phe(3-Me)]Y(Carboxymethyl)[Bip]Y(Carboxymethyl)[Orn][dL][Dab][Cha][Val(3-OH)]HC[AEEA][AEEA][Aun]-OH; thioether N-14): the IC50 was found to be 20.6 nM.
As to `CC(C)C[C@H]1NC(=O)[C@H](CCCN)NC(=O)[C@H](CCCNC(N)=O)NC(=O)[C@H](Cc2ccc(-c3ccccc3)cc2)NC(=O)[C@H](C(C)C)NC(=O)[C@H](Cc2c[nH]c3ccccc23)NC(=O)[C@H](CC(=O)O)NC(=O)[C@H](Cc2ccc(OCC(=O)O)cc2)NC(=O)[C@H](C(C)O)NC(=O)CSC[C@@H](C(=O)N[C@@H](CCN)C(=O)NCCOCCOCC(=O)NCCCCCCCCCCC(=O)O)NC(=O)[C@H](C(C)O)NC(=O)[C@H](C(C)(C)O)NC(=O)[C@H](CC2CCCCC2)NC(=O)[C@H](CCN)NC1=O` (stereo partly drawn) [Compound 3736] ({CH2CO}-[Thr(3ξ)]Y(Carboxymethyl)DWV[Bip][Cit][Orn][dL][Dab][Cha][Val(3-OH)][Thr(3ξ)]C[Dab][AEEA][Aun]-OH; thioether N-14), the 50% inhibitory concentration (IC50) was determined as 18.5 nM.
The result for `Cc1cccc(C[C@@H]2NC(=O)[C@H](CC(=O)O)NC(=O)[C@H](Cc3ccc(OCC(=O)O)cc3)NC(=O)[C@H](C(C)O)NC(=O)CSC[C@@H](C(=O)N[C@@H](CCN)C(=O)NCCOCCOCC(=O)NCCCCCCCCCCC(=O)O)NC(=O)[C@H](CCC(=O)O)NC(=O)[C@H](C(C)C)NC(=O)[C@H](CC3CCCCC3)NC(=O)[C@H](CCN)NC(=O)[C@@H](CC(C)C)NC(=O)[C@H](CCCN)NC(=O)[C@H](Cc3ccc(OCC(=O)O)cc3)NC(=O)[C@H](Cc3ccc(-c4ccccc4)cc3)NC(=O)[C@H](Cc3ccc(C(=O)O)cc3)NC2=O)c1` (stereo partly drawn) [Compound 3737] ({CH2CO}-[Thr(3ξ)]Y(Carboxymethyl)D[Phe(3-Me)][Phe(4-COOH)][Bip]Y(Carboxymethyl)[Orn][dL][Dab][Cha]VEC[Dab][AEEA][Aun]-OH; thioether N-14) reads 10.5 nM; that for `Cc1cccc(C[C@@H]2NC(=O)[C@H](CC(=O)O)NC(=O)[C@H](Cc3ccc(OCC(=O)O)cc3)NC(=O)[C@H](Cc3ccncc3)NC(=O)CSC[C@@H](C(=O)N[C@H](CCN)C(=O)NCCCCCCCCCCC(=O)O)NC(=O)[C@H](Cc3cnc[nH]3)NC(=O)[C@H](C(C)(C)O)NC(=O)[C@H](CC3CCCCC3)NC(=O)[C@H](CCN)NC(=O)[C@@H](CC(C)C)NC(=O)[C@H](CCCN)NC(=O)[C@H](Cc3ccc(OCC(=O)O)cc3)NC(=O)[C@H](Cc3ccc(-c4ccccc4)cc3)NC(=O)[C@H](Cc3ccc(OCC(=O)O)cc3)NC2=O)c1` [Compound 3738] ({CH2CO}-[4Pal]Y(Carboxymethyl)D[Phe(3-Me)]Y(Carboxymethyl)[Bip]Y(Carboxymethyl)[Orn][dL][Dab][Cha][Val(3-OH)]HC[dDab][Aun]-OH; thioether N-14), 20.7 nM.
With `CCC(C)[C@@H]1NC(=O)[C@H](Cc2ccc(-c3ccccc3)cc2)NC(=O)[C@H](Cc2ccc(C(=O)O)cc2)NC(=O)[C@H](Cc2cccc(C)c2)NC(=O)[C@H](CC(=O)O)NC(=O)[C@H](Cc2ccc(C(=O)O)cc2)NC(=O)[C@H](Cc2ccncc2)NC(=O)CSC[C@@H](C(=O)N[C@H](CCN)C(=O)NCCOCCOCC(=O)NCCCCCCCCCCC(=O)O)NC(=O)[C@H](CCC(=O)O)NC(=O)[C@H](C(C)(C)O)NC(=O)[C@H](CC2CCCCC2)NC(=O)[C@H](CCN)NC(=O)[C@@H](CC(C)C)NC(=O)[C@H](Cc2cnc[nH]2)NC1=O` (stereo partly drawn) [Compound 3739] ({CH2CO}-[4Pal][Phe(4-COOH)]D[Phe(3-Me)][Phe(4-COOH)][Bip][Ile(3ξ)]H[dL][Dab][Cha][Val(3-OH)]EC[dDab][AEEA][Aun]-OH; thioether N-14), the half-maximal inhibitory concentration (IC50) is 40.5 nM.
The result for `Cc1cccc(C[C@@H]2NC(=O)[C@H](CC(=O)O)NC(=O)[C@H](Cc3ccc(OCC(=O)O)cc3)NC(=O)[C@H](Cc3ccncc3)NC(=O)CSC[C@@H](C(=O)N[C@H](CCN)C(=O)NCCOCCOCC(=O)NCCCCCCCCCCC(=O)O)NC(=O)[C@H](CCC(=O)O)NC(=O)[C@H](C(C)(C)O)NC(=O)[C@H](CC3CCCCC3)NC(=O)[C@H](CCN)NC(=O)[C@@H](CC(C)C)NC(=O)[C@H](Cc3cnc[nH]3)NC(=O)[C@H](Cc3ccc(C(=O)O)cc3)NC(=O)[C@H](Cc3ccc(-c4ccccc4)cc3)NC(=O)[C@H](Cc3ccc(C(=O)O)cc3)NC2=O)c1` [Compound 3740] ({CH2CO}-[4Pal]Y(Carboxymethyl)D[Phe(3-Me)][Phe(4-COOH)][Bip][Phe(4-COOH)]H[dL][Dab][Cha][Val(3-OH)]EC[dDab][AEEA][Aun]-OH; thioether N-14) reads 16.1 nM; that for `Cc1cccc(C[C@@H]2NC(=O)[C@H](CC(=O)O)NC(=O)[C@H](Cc3ccc(OCC(=O)O)cc3)NC(=O)[C@H](Cc3ccncc3)NC(=O)CSC[C@@H](C(=O)N[C@@H](CCN)C(=O)NCCOCCOCC(=O)NCCOCCOCC(=O)NCCCCCCCCCCC(=O)O)NC(=O)[C@H](CCC(=O)O)NC(=O)[C@H](C(C)(C)O)NC(=O)[C@H](CC3CCCCC3)NC(=O)[C@H](CCN)NC(=O)[C@@H](CC(C)C)NC(=O)[C@H](CCCN)NC(=O)[C@H](Cc3ccc(C(=O)O)cc3)NC(=O)[C@H](Cc3ccc(-c4ccccc4)cc3)NC(=O)[C@H](Cc3ccc(C(=O)O)cc3)NC2=O)c1` [Compound 3741] ({CH2CO}-[4Pal]Y(Carboxymethyl)D[Phe(3-Me)][Phe(4-COOH)][Bip][Phe(4-COOH)][Orn][dL][Dab][Cha][Val(3-OH)]EC[Dab][AEEA][AEEA][Aun]-OH; thioether N-14), 8.8 nM; that for `Cc1cccc(C[C@@H]2NC(=O)[C@H](CC(=O)O)NC(=O)[C@H](Cc3ccc(OCC(=O)O)cc3)NC(=O)[C@H](Cc3ccncc3)NC(=O)CSC[C@@H](C(=O)N[C@@H](CCN)C(=O)NCCOCCOCC(=O)NCCOCCOCC(=O)NCCCCCCCCCCC(=O)O)NC(=O)[C@H](Cc3cnc[nH]3)NC(=O)[C@H](C(C)(C)O)NC(=O)[C@H](CC3CCCCC3)NC(=O)[C@H](CCN)NC(=O)[C@@H](CC(C)C)NC(=O)[C@H](CCCN)NC(=O)[C@H](Cc3ccc(C(=O)O)cc3)NC(=O)[C@H](Cc3ccc(-c4ccccc4)cc3)NC(=O)[C@H](Cc3ccc(C(=O)O)cc3)NC2=O)c1` [Compound 3742] ({CH2CO}-[4Pal]Y(Carboxymethyl)D[Phe(3-Me)][Phe(4-COOH)][Bip][Phe(4-COOH)][Orn][dL][Dab][Cha][Val(3-OH)]HC[Dab][AEEA][AEEA][Aun]-OH; thioether N-14), 1.7 nM.
Next, `Cc1cccc(C[C@@H]2NC(=O)[C@H](CC(=O)O)NC(=O)[C@H](Cc3ccc(C(=O)O)cc3)NC(=O)[C@H](C(C)C)NC(=O)CSC[C@@H](C(=O)N[C@@H](CCN)C(=O)NCCOCCOCC(=O)NCCCCCCCCCCC(=O)O)NC(=O)[C@H](CO)NC(=O)[C@H](C(C)(C)O)NC(=O)[C@H](CC3CCCCC3)NC(=O)[C@H](CCN)NC(=O)[C@@H](CC(C)C)NC(=O)[C@H](CCCN)NC(=O)[C@H](Cc3ccc(OCC(=O)O)cc3)NC(=O)[C@H](Cc3ccc(-c4ccccc4)cc3)NC(=O)[C@H](Cc3ccc(OCC(=O)O)cc3)NC2=O)c1` [Compound 3743] ({CH2CO}-V[Phe(4-COOH)]D[Phe(3-Me)]Y(Carboxymethyl)[Bip]Y(Carboxymethyl)[Orn][dL][Dab][Cha][Val(3-OH)]SC[Dab][AEEA][Aun]-OH; thioether N-14): 4.8 nM; `Cc1cccc(C[C@@H]2NC(=O)[C@H](CC(=O)O)NC(=O)[C@H](Cc3ccc(OCC(=O)O)cc3)NC(=O)[C@H](Cc3ccncc3)NC(=O)CSC[C@@H](C(=O)N[C@@H](CCN)C(=O)NCCOCCOCC(=O)NCCCCCCCCCCC(=O)O)NC(=O)[C@H](CCC(=O)O)NC(=O)[C@H](C(C)(C)O)NC(=O)[C@H](CC3CCCCC3)NC(=O)[C@H](CCN)NC(=O)[C@@H](CC(C)C)NC(=O)[C@H](CCCN)NC(=O)[C@H](Cc3ccc(C(=O)O)cc3)NC(=O)[C@H](Cc3ccc(-c4ccccc4)cc3)NC(=O)[C@H](Cc3ccc(C(=O)O)cc3)NC2=O)c1` [Compound 3744] ({CH2CO}-[4Pal]Y(Carboxymethyl)D[Phe(3-Me)][Phe(4-COOH)][Bip][Phe(4-COOH)][Orn][dL][Dab][Cha][Val(3-OH)]EC[Dab][AEEA][Aun]-OH; thioether N-14): 16.6 nM; `Cc1cccc(C[C@@H]2NC(=O)[C@H](CC(=O)O)NC(=O)[C@H](Cc3ccc(OCC(=O)O)cc3)NC(=O)[C@H](Cc3ccncc3)NC(=O)CSC[C@@H](C(=O)N[C@@H](CCN)C(=O)NCCOCCOCC(=O)NCCCCCCCCCCC(=O)O)NC(=O)[C@H](CCC(=O)O)NC(=O)[C@H](C(C)(C)O)NC(=O)[C@H](CC3CCCCC3)NC(=O)[C@H](CCN)NC(=O)[C@@H](CC(C)C)NC(=O)[C@H](CCC(N)=O)NC(=O)[C@H](Cc3ccc(OCC(=O)O)cc3)NC(=O)[C@H](Cc3ccc(-c4ccccc4)cc3)NC(=O)[C@H](Cc3ccc(OCC(=O)O)cc3)NC2=O)c1` [Compound 3746] ({CH2CO}-[4Pal]Y(Carboxymethyl)D[Phe(3-Me)]Y(Carboxymethyl)[Bip]Y(Carboxymethyl)Q[dL][Dab][Cha][Val(3-OH)]EC[Dab][AEEA][Aun]-OH; thioether N-14): 6.8 nM.
